Test results published in patent publication US6344457B1, “Amino acid derivatives inhibiting extracellular matrix metalloproteinase and TNF alpha release” (Chiesi Farmaceutici S.p.A., priority 1997, dated 2002).
Read-outs that look alike come from different tables or passages of the source.

Legend:
[1] = biological target: stromelysine of human origin (Homo sapiens, UniProt P08254); assay: Activity on stromelysine; type: biochemical; conditions: radiomarked transferrin, 37° C., 16 hours; read-out: C150 (nM) stromelysine
Chain of stromelysine of human origin (P08254 100-477): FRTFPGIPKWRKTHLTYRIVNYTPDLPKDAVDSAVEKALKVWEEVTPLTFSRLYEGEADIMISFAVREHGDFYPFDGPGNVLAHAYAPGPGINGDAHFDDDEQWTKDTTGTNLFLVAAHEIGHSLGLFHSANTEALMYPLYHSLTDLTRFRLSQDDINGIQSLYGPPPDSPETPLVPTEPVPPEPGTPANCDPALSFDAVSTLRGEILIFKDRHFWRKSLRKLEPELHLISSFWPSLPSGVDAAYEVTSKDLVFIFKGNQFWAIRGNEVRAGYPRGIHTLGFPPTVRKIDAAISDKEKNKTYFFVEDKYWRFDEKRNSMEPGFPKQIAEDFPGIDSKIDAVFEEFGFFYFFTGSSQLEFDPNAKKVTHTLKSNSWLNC
Method: (§1) The stromelysine was incubated at 37° C. for 16 hours with radiomarked transferrin, and its activity was determined by the release of the soluble peptides produced by the enzymatic breakdown of the transferrin. The inhibiting concentration C150 for each compound was determined by measurement of the activity of the enzyme in the presence of the inhibitor at a concentration ranging between 10^−7 and 10^−12 M (the inhibitor is dissolved in the same manner as for collagenase).

[2] = biological target: T1, 72 kDa gelatinase of human origin (Homo sapiens, UniProt P08253); assay: Activity on gelatinase, synthetic substrate; type: biochemical; conditions: performed on synthetic substrate; read-out: C150 (nM) gelatinase 72 kDa**
T1 sequence (P08253 110-660): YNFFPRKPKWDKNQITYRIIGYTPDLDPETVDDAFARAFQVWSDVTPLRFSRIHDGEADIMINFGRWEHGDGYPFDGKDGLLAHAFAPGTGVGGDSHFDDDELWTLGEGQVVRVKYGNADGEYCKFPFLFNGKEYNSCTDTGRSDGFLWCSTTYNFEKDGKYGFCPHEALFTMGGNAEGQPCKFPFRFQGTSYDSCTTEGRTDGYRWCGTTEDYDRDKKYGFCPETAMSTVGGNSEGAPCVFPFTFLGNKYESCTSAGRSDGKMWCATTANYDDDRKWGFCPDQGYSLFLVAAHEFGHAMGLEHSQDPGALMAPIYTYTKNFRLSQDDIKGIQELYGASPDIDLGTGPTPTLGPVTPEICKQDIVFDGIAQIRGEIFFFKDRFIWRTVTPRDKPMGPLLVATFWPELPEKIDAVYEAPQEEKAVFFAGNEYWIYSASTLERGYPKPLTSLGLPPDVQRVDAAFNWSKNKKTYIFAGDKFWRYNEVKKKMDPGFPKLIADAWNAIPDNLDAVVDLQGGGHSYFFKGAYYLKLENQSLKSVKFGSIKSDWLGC
Method: The anti-gelatinase activity of the compounds according to the invention was determined on 72 kDa gelatinase of human origin, in accordance with the operating mode described by Knight, C. G., Willenbrock, F., Murphy, G. (FEBS Letters, 296 (3), 263-266, 1992).
The gelatinase was incubated at 37° C. for 10 minutes, and its activity was determined by the increase in fluorescence of the product of Mca-Pro-Leu breakdown of the Mca-Pro-Leu-Gly-Leu-Dpa-Ala-Arg-NH2 synthetic substrate.
The inhibiting concentration C150 for each compound was determined by measurement of the activity of the enzyme in the presence of the inhibitor at a concentration ranging between 10^−7 and 10^−12 M (the inhibitor is dissolved at a concentration of 10^−2 M in DMSO, then diluted successively by tenths in DMSO to 10^−4 M, then in the buffer: Tris, HCl 50 mM+0.05% Brij 35; CaCl2 10 mM; NaCl 0.15 M).

[3] = biological target: 92 kDa gelatinase of human origin (Homo sapiens, UniProt P14780); assay: Activity on gelatinase, radiomarked gelatin; type: biochemical; conditions: for IC50: test performed with radiomarked gelatin, read-out: C150 (nM) gelatinase 92 kDa*; for gelatinase 92 kDa* (in %): radiomarked gelatin, concentration not given
Chain of 92 kDa gelatinase of human origin (P14780 94-707): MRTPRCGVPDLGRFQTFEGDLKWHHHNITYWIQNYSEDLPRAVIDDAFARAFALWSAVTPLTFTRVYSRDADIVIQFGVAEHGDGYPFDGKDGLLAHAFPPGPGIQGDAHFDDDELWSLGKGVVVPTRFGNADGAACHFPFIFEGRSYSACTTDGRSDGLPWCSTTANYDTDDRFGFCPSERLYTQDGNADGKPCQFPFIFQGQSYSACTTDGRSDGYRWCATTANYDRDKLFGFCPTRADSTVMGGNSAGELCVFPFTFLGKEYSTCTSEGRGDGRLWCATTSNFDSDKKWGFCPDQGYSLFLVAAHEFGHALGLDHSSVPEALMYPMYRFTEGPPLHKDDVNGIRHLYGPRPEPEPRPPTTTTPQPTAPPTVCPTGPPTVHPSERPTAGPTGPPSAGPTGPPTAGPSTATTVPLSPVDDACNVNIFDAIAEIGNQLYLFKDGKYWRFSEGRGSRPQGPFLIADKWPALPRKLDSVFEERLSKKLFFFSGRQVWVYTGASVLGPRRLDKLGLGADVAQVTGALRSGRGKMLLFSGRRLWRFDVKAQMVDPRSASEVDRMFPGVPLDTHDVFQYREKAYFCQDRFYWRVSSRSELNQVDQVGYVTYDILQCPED
Method: The anti-gelatinase activity of the compounds according to the invention also was determined on 92 kDa or 72 kDa gelatinase of human origin, in accordance with the operating mode described by Harris, E. D., Krane, S. M.; (Biochem. Biophys. Acta, 258, 566-576, 1972).
as §1, with “gelatinase” for “stromelysine”, “gelatin,” for “transferrin,”, “gelatin.” for “transferrin.”

[4] = biological target: T2, collagenase of the human monocytic stock U937 (Homo sapiens, UniProt P03956); assay: Activity on collagenase; type: biochemical; conditions: radiomarked collagen, 27° C., 16 hours; read-out: C150 (nM) collagenase
T2 construct: the collagenase of the human monocytic stock U937; endogenous in cells; host or cells: U937 human monocytic cell line
T2 sequence (P03956 100-469): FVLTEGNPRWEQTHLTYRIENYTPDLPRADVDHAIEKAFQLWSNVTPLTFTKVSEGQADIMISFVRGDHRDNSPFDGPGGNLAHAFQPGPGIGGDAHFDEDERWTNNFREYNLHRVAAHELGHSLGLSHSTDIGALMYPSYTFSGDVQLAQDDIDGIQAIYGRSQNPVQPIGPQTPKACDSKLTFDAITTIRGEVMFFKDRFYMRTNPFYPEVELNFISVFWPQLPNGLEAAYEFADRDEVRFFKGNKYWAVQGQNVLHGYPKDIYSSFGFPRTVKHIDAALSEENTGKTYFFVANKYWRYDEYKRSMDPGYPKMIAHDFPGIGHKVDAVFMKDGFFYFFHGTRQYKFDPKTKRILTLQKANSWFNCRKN
Method: The collagenase was incubated at 27° C. for 16 hours with radiomarked collagen, and its activity was determined by the release of soluble peptides produced by the enzymatic breakdown of the collagen. The inhibiting concentration C150 for each compound was determined by measurement of the activity of the enzyme in the presence of the inhibitor at a concentration ranging between 10^−7 and 10^−12 M (the inhibitor is dissolved at a concentration of 10^−2 M in DMSO, then diluted successively by tenths in the buffer: Tris, HCl 150 mM, pH 7.5; NaCl 0.15 M; CaCl2 10 mM).

[5] = system: release of TNF from the peritoneal macrophages of mice stimulated by LPS; assay: Inhibition of the production of TNF in vitro; type: cell-based; conditions: mouse peritoneal macrophages, LPS 100 ng/ml, read-out: C150 (μM) TNF
Method: The capacity of the compounds according to this invention to inhibit the release of TNF was determined from the peritoneal macrophages of mice stimulated by LPS (Lang, F., Robert, […], Petit, J. Y., J. Pharmacol. Exp. Ther., 275, 171-176, 1995). After an adhesion phase of 2 hours, the cells were treated for 1 hour with the compound to be tested at concentrations ranging between 10^-6 to 10^-9 M (the inhibitor is dissolved in DMSO at 10^-2 M, then at 5.10^-3 M in RPMI 1640 with 5% SVF, then diluted successively by tenths in the same medium), then stimulated by the addition of LPS (100 ng/ml in final concentration). Three hours later, the biological activity of the TNF in the supernatants was determined by a cytotoxicity test using the murine stock L929 in accordance with the operating procedure described by Band, G., Lin, […]., Evans, C. H. (Bioch. Biophys. Acta, 1134, 309-318, 1982). The pg/ml concentration of the TNF of the samples was determined from a murine αTNF standard curve, thus making it possible to define the inhibiting concentration […] of the compounds studied.

Molecule | IC50 [1] | IC50 [2] | IC50 [3] | IC50 [4] | IC50 ([5]; Peritoneal macrophage) | gelatinase 92 kDa* (in %) [3] | IC50 [5]
CNC(=O)[C@@H](NC(=O)[C@](O)(CC(C)C)[C@H](C)C(=O)NO)C(C)(C)C [Example 2, N-2-(S)[1(S)(hydroxycarbamoyl)ethyl]-2(S) hydroxy-4-methylpentanoyl 3-methyl-(S) valine N-methylamide] | 60 nM | 3.4 nM | 16 nM | 18 nM |  |  | 
COc1ccc(C[C@H](NC(=O)[C@](O)(CC(C)C)[C@H](C)C(=O)NO)C(=O)NCc2ccccc2)cc1 [Example 5, N-2(S)[-1-(S)(hydroxycarbamoyl)-ethyl]-2(S) hydroxy-4-methyl 2entanol O methyl-L-tyrosine phenylmethylamide] | 11 nM | 2.4 nM | 0.5 nM | 12 nM |  |  | 
CNC(=O)[C@H](Cc1ccc(OC)cc1)NC(=O)[C@](O)(C(C)C)[C@H](C)C(=O)NO [Example 7, N-2(S) [-1-(S) hydroxycarbamoyl 1(S)ethyl] 2(S) hydroxy-3 methyl butanoyl O-methyltyrosine N-methylamide] |  | 18 nM | 17 nM | 30 nM | 2 µM |  | 
CCC[C@H](C(=O)NO)[C@@](O)(CC(C)C)C(=O)N[C@@H](Cc1ccc(Cl)cc1)C(=O)NC [Example 17, N-2(S) hydroxy 3(S) hydroxycarbamoyl 2(S) 1(2-methyl) propyl hexanoyl L-4-chlorophenylalanine N-methyl amide] |  | 1.6 nM | 1.6 nM |  | 0.27 µM |  | 
CC(C)C[C@@](O)(C(=O)N[C@@H](Cc1ccc(Cl)c(Cl)c1)C(=O)NCCOCCO)[C@H](C)C(=O)NO [Example 19, N-2(S)[1(S)hydroxycarbamoyl-1 ethyl]-2 (S) hydroxy 4-methylpentanoyl L-3,4 dichlorophenylalanine N-hydroxyethyloxyethylamide] |  | 0.7 nM | 0.001 nM | 7 nM | 0.5 µM |  | 
CNC(=O)[C@H](Cc1ccc(Cl)cc1Cl)NC(=O)[C@](O)(CC(C)C)[C@H](C)C(=O)NO [Example 20, N-2(S)[1(S)hydroxycarbamoyl-1 ethyl]-2 (S) hydroxy 4-methylpentanoyl L-2,4-dichlorophenylalanine N-methylamide] |  | 1.6 nM | 0.2 nM | 3.7 nM | 1 µM |  | 
CSCCNC(=O)[C@H](Cc1ccc(Cl)c(Cl)c1)NC(=O)[C@](O)(CC(C)C)[C@H](C)C(=O)NO [Example 21, N-2(S)[1(S)hydroxycarbamoyl-1 ethyl]-2(S) hydroxy-4-methylpentanoyl L-3,4-dichlorophenylalanine N-(2-methylthio-1-ethyl) amide] |  |  |  | 5 nM | 0.4 µM | 83% | 
COCCOCCNC(=O)[C@H](Cc1ccc(Cl)c(Cl)c1)NC(=O)[C@](O)(CC(C)C)[C@H](C)C(=O)NO [Example 23, N-2(S) [1(S) hydroxycarbamoyl-1 ethyl]-2(S) hydroxy 4-methyl pentanoyl L-3,4-dichlorophenylalanine N-(2-(2-methoxyethoxy)1-ethyl)amide] |  | 0.14 nM |  |  | 0.37 µM | 60% | 
CNC(=O)[C@H](Cc1ccc(OC)cc1)NC(=O)[C@](O)(CC(C)C)[C@H](OC)C(=O)NO [Example 31, N-2(S)[(S) hydroxycarbamoyl(S)methoxy]methyl 2(S) hydroxy-4 methyl pentanoyl O-methyl tyrosine N-methylamide] | 90 nM | 18 nM | 140 nM | 120 nM |  |  | 
N-2(S)[1(S)-hydroxycarbamoyl-1 (S) ethyl]-2 (S)-hydroxy-4-methyl pentanoyl L-(3,4)-dichlorophenylalanine N-(2-(4-morpholino)1-ethyl) amide [Example 35a] |  |  | 0.38 nM | 6 nM |  |  | 0.86 µM

More lines, now with the values ahead:

IC50 [1] | IC50 [2] | IC50 [3] | IC50 [4] | IC50 ([5]; Peritoneal macrophage) | gelatinase 92 kDa* (in %) [3] | IC50 [5] | Molecule
 | 0.8 nM | 1.9 nM |  | > 1 µM |  |  | C[C@H](C(=O)NO)[C@@](O)(CCCc1ccccc1)C(=O)N[C@@H](CC1CCCCC1)C(=O)NCCc1ccccc1 [Example 32, N-2-(S)[1(S)(hydroxycarbamoyl)ethyl]2(S) hydroxy 5-phenyl pentanoyl L-3-cyclohexylalanine 2 phenylethylamide]
 | 0.01 nM |  | 225 nM | 0.58 µM | 86% |  | CNC(=O)[C@H](Cc1ccc(Cl)c(Cl)c1)NC(=O)[C@](O)(CCCc1ccccc1)[C@H](C)C(=O)NO [Example 33, N-2-(S)[1(S)(hydroxycarbamoyl)ethyl]2(S) hydroxy 5-phenylpentanoyl L-3,4-dichlorophenylalanine N-methylamide]
 |  | 1.1 nM | 4 nM | 0.3 µM |  |  | CC(C)C[C@@](O)(C(=O)N[C@@H](Cc1ccc(Cl)c(Cl)c1)C(=O)NCCN1CCOCC1)[C@H](C)C(=O)NO [Example 35b]
 |  | 23 nM | 500 nM | 3 µM |  |  | CNC(=O)[C@H](Cc1ccc(OC)cc1)NC(=O)[C@](O)(CC(C)C)[C@H](C)S [Example 36, N-2(R)-[(1-thioethyl)] 2(R) hydroxy 4-methyl pentanoyl-o-methyl-L-tyrosine methylamide]
 |  | 70 nM | > 1000 nM | 2 µM |  |  | CNC(=O)[C@H](Cc1ccc(Cl)c(Cl)c1)NC(=O)[C@@](O)(CS)CC(C)C [Example 37]
